In patent publication US6441134B1, “Isolated Candida albicans oligopeptide transporter gene” (The University of Tennessee Research Corporation, dated 2002):
Starred links: 1 amine or outer side, 2 acyl side, 3 side chain; linkers in the order of their positions; H or OH if unused. Non-standard residues stand in square brackets, D forms with d. Residues, ends and D or L forms follow the SMILES beside them. No end group written: not given here. Eth = ethionine, CCSCC[C@H](N[*:1])C(=O)[*:2]; Ethionine = CCSCC[C@H](N[*:1])C(=O)[*:2]; hCys = N[C@@H](CCS)C(=O)O

T1: Candida albicans oligopeptide transporter Opt1p (protein product of OPT1) (Candida albicans)
T1 chain: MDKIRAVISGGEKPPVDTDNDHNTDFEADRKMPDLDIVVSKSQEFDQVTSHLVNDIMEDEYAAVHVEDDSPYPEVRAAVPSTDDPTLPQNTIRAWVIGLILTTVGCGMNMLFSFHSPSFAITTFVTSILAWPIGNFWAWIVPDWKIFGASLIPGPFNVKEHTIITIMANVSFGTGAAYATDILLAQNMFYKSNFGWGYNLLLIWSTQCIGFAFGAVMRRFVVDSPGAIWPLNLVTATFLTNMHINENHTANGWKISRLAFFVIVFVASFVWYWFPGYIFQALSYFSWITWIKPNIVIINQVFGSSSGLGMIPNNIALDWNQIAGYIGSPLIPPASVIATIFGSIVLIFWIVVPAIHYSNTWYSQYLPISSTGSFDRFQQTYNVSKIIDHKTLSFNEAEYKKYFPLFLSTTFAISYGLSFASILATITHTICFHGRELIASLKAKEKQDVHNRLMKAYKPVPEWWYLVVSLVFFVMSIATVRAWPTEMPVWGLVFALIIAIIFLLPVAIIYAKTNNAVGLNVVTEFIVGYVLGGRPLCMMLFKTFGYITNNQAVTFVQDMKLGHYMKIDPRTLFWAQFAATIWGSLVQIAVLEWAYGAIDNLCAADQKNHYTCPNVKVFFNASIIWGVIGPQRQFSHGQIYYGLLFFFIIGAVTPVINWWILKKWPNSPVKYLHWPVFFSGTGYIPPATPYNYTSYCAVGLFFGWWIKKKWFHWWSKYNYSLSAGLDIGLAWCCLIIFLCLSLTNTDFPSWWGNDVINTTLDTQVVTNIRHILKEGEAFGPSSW

B1: Lysyl-Leucyl-Glycine (peptide)
peptide: KLG
B2: Lysyl-Leucine (peptide)
peptide: KL

Columns and labels:
[1] = test system: S. cerevisiae PB1X-9B(pRS202); experiment: Disk sensitivity assay to ethionine-containing peptides, PB1X-9B(pRS202); type: cell-based, Saccharomyces cerevisiae; conditions: for zone of growth inhibition / sensitivity: 0.1% proline as nitrogen source, 0.38 μmoles per 6 mm disk; for zone of growth inhibition: medium containing ammonium sulfate
Experimental: (§1) S. cerevisiae PB1X-9B is sensitive to the toxic amino acid ethionine Eth) but is resistant to ethionine containing di-, tri-, tetra-, and pentapeptides. Disk sensitivity assays was utilized to determine if cells transformed with pOPT1 were sensitive to toxic peptides and whether this sensitivity was dependent upon nitrogen source.
(§2) Sensitivity to ethionine, a toxic methionine analog, and ethionine-containing peptides was determined by the method described by Island et al. (1987). Cells were grown overnight to exponential phase of growth in SC, washed, and resuspended at 5×10^6 cells /ml in sterile water. One ml of this cell suspension was added to 3 ml molten Noble agar (0.8% final concentration) and overlayed on 20 ml of the same medium used to prepare the inoculum. A disk (6 mm diameter, Difco) was placed on the plate and 0.38 μmoles of the compounds to be tested were applied to the disks. Zones of inhibition were measured after 24-48 hr incubation at 30 iC. Each test comprised at least three independent assays and the results represented in the Tables are means of the values obtained. Maximum variation between the zones of inhibition measured for each test were ^23 mm. A value of 7 mm for the diameter of zone of inhibition represents a minimal growth inhibition value as the disk diameter was 6 mm. Photodocumentation of sensitivity assays was done with a Umax Scanner and processed through Adobe Photoshop.

[2] = test system: S. cerevisiae PB1X-9B(pOPT1); type: cell-based, Saccharomyces cerevisiae; conditions: 0.38 μmoles per 6 mm disk; for zone of growth inhibition / sensitivity: 0.1% proline as nitrogen source; for zone of growth inhibition: ammonium sulfate as nitrogen source, 24-48 hr
Experimental: as §1, §2

[3] = test system: S. cerevisiae PB1X-9B(pRS202); experiment: Growth assay, peptides as sole source of leucine, PB1X-9B(pRS202); type: cell-based, Saccharomyces cerevisiae; conditions: medium with 0.1% proline as nitrogen source; 100 μM peptide
Experimental: (§3) To determine the size constraints of peptide utilization mediated by pOPT1, the ability of S. cerevisiae PB1X-9B (a mutant in the di-/tripeptide transporter) harboring either pRS202 (the parent vector) or pOPT1 (pRS202 containing the 3.8 kb insert with the OPT1 gene) to grow on KL, KLG, KLLG SEQ ID NO:6, and KLLLG SEQ ID NO:8 as a sole source of leucine was tested. Previously it has been shown that di-/tripeptide transport activity in C. albicans and S. cerevisiae is regulated by nitrogen; rich nitrogen sources such as ammnonium sulfate repress, while poor nitrogen sources such as proline derepress transport. Therefore simultaneous effect of nitrogen source on oligopeptide transport activity was determined by supplying either ammnonium sulfate or proline as the nitrogen source.
(§4) Peptide medium consisted of minimal medium supplemented with auxotrophic requirements minus the amino acid Seucine plus 100 μM of one of the following peptidest Lysyl-Leucine (KL), Lysyl-Leucyl-Glycine (KLG), Lysyl-Leucyl-Leucyl-Glycine (KLLG) SEQ ID NO:6, Lysyl-Leucyl-Glycyl-Leucine (KLGL) SEQ ID NO:7, or Lysyl-Leucyl-Leucyl-Leucyl-Glycine (KLLLG) SEQ ID NO:8. Abbreviations for toxic peptides and amino acids used herein are as follows: Ethionine (Eth), Alanyl-Ethionine (AEth), Leucyl-Ethionine (LEth), Lysysl-Leucyl-Ethionine (KLEth), Lysyl-Leucyl-Leucyl-Ethionine (KLLEth) SEQ ID NO:12, Lysysl-Leucyl-Alanyl-Ethionine (KLAEth) SEQ ID NO:14, and Lysyl-Leucyl-Leucyl-Leucyl-Ethionine (KLLLEth) SEQ ID NO:13. All amino acids were in the L configuration.
(§5) Growth assays to determine the phenotype of the cells were done as described by Island et al. (1991). Briefly, 3 μl of culture from a suspension of 5×10^6 cells/ml were spotted to the surface of the medium and plates were incubated at 30 iC for 4-7 days.

[4] = test system: oligopeptide transporter (OPT1) expressed in S. cerevisiae PB1X-9B; experiment: Peptide transport competition experiment, KLG-[3H]L uptake by PB1X-9B(pOPT1); type: cell-based, Candida albicans; conditions: for uptake rate of KLG-[3H]L in the presence of the competitor: SC-Ura with ammonium sulfate; for competition with the uptake of KLG-[3H]L: 10-fold molar excess of competitor, FIG. 7
Experimental: To more rigorously determine the size constraints of the oligopeptide transporter, the accumulation of KLG-[^3H]L SEQ ID NO:7 was measured in the presence of 10-fold molar excess of the competitors L, KL, KLG, KLLG SEQ ID NO:6, and KLLLG SEQ ID NO:8. […] Uptake rates were calculated from a bestfit of the slope for each set of data. The uptake rate of KLG-[^3H]L SEQ ID NO:7 in the presence of no competitor, L, or KL was […] of dry weight, respectively. When KLG was used as a competitor the uptake rate was 0.12 nmoles/min/mg of dry weight which was approximately 50% of the no-competitor rate. The uptake rate approximated zero when KLLG SEQ ID NO:6 and KLLLG SEQ ID NO:8 were used as competitors.
Uptake of KLG-[^3H]L SEQ ID NO:7 was determined using a protocol for uptake of dipeptides as described by Basrai et al. (1995) with a few modifications. S. cerevisiae cultures were grown overnight to exponential phase in SC-Ura medium. Cells were harvested by centrifugation, and resuspended in 2% glucose at a cell density of 2×10^8 cells/ml. Two hundred and fifty microliters of cell suspension were added to an equal volume of an uptake assay reaction mixture and incubated at 30iC. The final concentrations of the components in the uptake assay solution were: glucose (2%, w/v), 10 mM sodium citrate/potassium phosphate buffer (pH 5.0), and KLG-[^3H]L SEQ ID NO:7 (150 μM; 8.5 mCi/mmol). Competition experiments were done in the presence of either 1.5 mM L, KL, KLG, KLLG SEQ ID NO:6, or KLLLG SEQ ID NO:8. At various time points, 90 μl portions were removed and filtered through a membrane. The yeast cells retained on the filter were washed twice with ice-cold distilled water, once with room temperature distilled water, and the residual radioactivity was measured by liquid scintillation. There was no peptide adsorption to the cell surface or sticking to filters since at 0i C the counts were at background level. The uptake results, calculated on the basis of 50% counting efficiency (determined using L-[^3H]lysine as a standard, and the specific activity of the peptide), were expressed as nmol of peptide uptake per minute per mg cell dry weight.

[5] = test system: S. cerevisiae PB1X-9B(pOPT1); experiment: Growth assay, peptides as sole source of leucine, PB1X-9B(pOPT1); type: cell-based, Saccharomyces cerevisiae; conditions: 100 μM peptide; for utilization of peptide as a sole source of leucine (growth): medium with 0.1% proline as nitrogen source
Experimental: as §3, §4, §5

[6] = test system: S. cerevisiae PB1X-9B(pRS202); experiment: Peptide transport assay, accumulation of KLG-[3H]L, PB1X-9B(pRS202); type: cell-based, Saccharomyces cerevisiae; conditions: cells grown in SC-Ura with 0.1% proline
Experimental: To determine if S. cerevisiae transformants harboring pOPT1 could accumulate a radiolabeled tetrapeptide, uptake assays were performed with the radiolabeled substrate KLG-[^3H]L SEQ ID NO:7 with cells grown to log phase in SC-Ura with either ammonium sulfate or 0.1% proline as a nitrogen source. […] This higher initial rate can be explained by overexpression due to high copy number or alternatively by the lack of requisite regulatory elements which may be absent in the heterologous host.
Uptake of KLG-[^3H]L SEQ ID NO:7 was determined using a protocol for uptake of dipeptides as described by Basrai et al. (1995) with a few modifications. S. cerevisiae cultures were grown overnight to exponential phase in SC-Ura medium. Cells were harvested by centrifugation, and resuspended in 2% glucose at a cell density of 2×10^8 cells/ml. […] The yeast cells retained on the filter were washed twice with ice-cold distilled water, once with room temperature distilled water, and the residual radioactivity was measured by liquid scintillation. […] The uptake results, calculated on the basis of 50% counting efficiency (determined using L-[^3H]lysine as a standard, and the specific activity of the peptide), were expressed as nmol of peptide uptake per minute per mg cell dry weight.

[7] = target: T1, Candida albicans oligopeptide …; experiment: cell-based or functional assay
[8] = 10-fold molar excess (1.5 mM) of competitor

| Molecule | zone of growth inhibition / sensitivity [1] | zone of growth inhibition / sensitivity [2] | uptake rate of KLG-[3H]L in the presence of the competitor [4, 8] | competition with the uptake of KLG-[3H]L [4] | further results |
| --- | --- | --- | --- | --- | --- |
| CCSCC[C@H](NC(=O)[C@H](C)N)C(=O)O [AEth, Alanyl-Ethionine] (H-Ala-[hCys](Et)-OH) | Neither strain exhibited sensitivity | Neither strain exhibited sensitivity | – | – | zone of growth inhibition [2]: no zone of growth inhibition |
| CC(C)C[C@H](NC(=O)[C@@H](N)CCCCN)C(=O)O [KL, Lysyl-Leucine] (H-Lys-Leu-OH) | – | – | 0.26 nm/min/mg of dry weight | do not compete | utilization of peptide as a sole source of leucine (growth) [3]: No growth; utilization of peptide as a sole source of leucine (growth) [5]: No growth |
| CC(C)C[C@H](NC(=O)[C@@H](N)CCCCN)C(=O)NCC(=O)O [KLG, Lysyl-Leucyl-Glycine] (H-Lys-Leu-Gly-OH) | – | – | 0.12 nmoles/min/mg of dry weight | decreased competition | utilization of peptide as a sole source of leucine (growth) [3]: No growth; uptake rate with competitor as percent of the no-competitor rate [4, 8]: approximately 50%; utilization of peptide as a sole source of leucine (growth) [5]: No growth |
| CC(C)C[C@H](NC(=O)CNC(=O)[C@H](CC(C)C)NC(=O)[C@@H](N)CCCCN)C(=O)O [KLGL, Lysyl-Leucyl-Glycyl-Leucine] (H-KLGL-OH) | – | – | – | – | accumulation of tetrapeptide [6]: did accumulate |
| CCSCC[C@H](NC(=O)[C@H](CC(C)C)NC(=O)[C@H](CC(C)C)NC(=O)[C@@H](N)CCCCN)C(=O)O [KLLEth, Lysyl-Leucyl-Leucyl-Ethionine] (H-KLL[hCys](Et)-OH) | not for PB1X-9B(pRS202) | zone of complete growth inhibition | – | – | zone of growth inhibition [1]: not PB1X-9B(pRS202) |
| CC(C)C[C@H](NC(=O)[C@H](CC(C)C)NC(=O)[C@@H](N)CCCCN)C(=O)NCC(=O)O [KLLG, Lysyl-Leucyl-Leucyl-Glycine] (H-KLLG-OH) | – | – | zero | competition was seen | utilization of peptide as a sole source of leucine (growth) [3]: not able to utilize; utilization of peptide as a sole source of leucine (growth) [5]: able to utilize; utilization of peptide as a source of leucine (growth) ([5]; medium with ammonium sulfate as nitrogen source): able to utilize |
| CC(C)C[C@H](N)C(=O)O [L, leucine] | – | – | 0.25 nm/min/mg of dry weight | do not compete | – |
| CCSCC[C@H](NC(=O)[C@@H](N)CC(C)C)C(=O)O [LEth, Leucyl-Ethionine] (H-Leu-[hCys](Et)-OH) | – | – | – | – | zone of growth inhibition [2]: no zone of growth inhibition |
| KLLAEth: ethionine-containing toxic pentapeptide, SEQ ID NO:15 (KLLA[Eth]) | not for PB1X-9B(pRS202) | zone of complete growth inhibition | – | – | zone of growth inhibition [1]: not PB1X-9B(pRS202) |
| KLLLG [KLLLG, Lysyl-Leucyl-Leucyl-Leucyl-Glycine] | – | – | zero | competition was seen | utilization of peptide as a sole source of leucine (growth) [3]: No growth; utilization of peptide as a sole source of leucine (growth) [5]: No growth |
| Lysysl-Leucyl-Alanyl-Ethionine (KLA[Ethionine]) [KLAEth] | not for PB1X-9B(pRS202) | zone of complete growth inhibition | – | – | zone of growth inhibition [1]: not PB1X-9B(pRS202) |
| Lysysl-Leucyl-Ethionine [KLEth] | Neither strain exhibited sensitivity | Neither strain exhibited sensitivity | – | – | zone of growth inhibition [2]: no zone of growth inhibition |
| B1 | – | – | – | – | uptake rate of KLG-[3H]L in the presence of a 10-fold molar excess of the competitor [7]: 0.12 nmoles/min/mg of dry weight |
| B2 | – | – | – | – | uptake rate of KLG-[3H]L in the presence of a 10-fold molar excess of the competitor [7]: 0.26 nm/min/mg of dry weight |
